One assay deals with Genome polyprotein (dengue virus type 2, UniProt P29990). Put plainly: Dengue-2 NS5 methyltransferase inhibitors, primary screen, biochemical, confirmation dose response (AID 588689). It is filed as functional.
Assay [1] concerns the target Tyrosine-protein phosphatase non-receptor type 5 (Homo sapiens, UniProt P54829). Put plainly: STEP phosphatase inhibitors, confirmation, biochemical, fluorescence intensity, uHTS hits (AID 602372). Format: functional. Conditions: read-out: IC50_Mean.
For assay [2], the target named is T1, Rac GTPase-activating protein 1 (Homo sapiens, UniProt Q9H0H5).
T1 sequence (Q9H0H5 whole entry): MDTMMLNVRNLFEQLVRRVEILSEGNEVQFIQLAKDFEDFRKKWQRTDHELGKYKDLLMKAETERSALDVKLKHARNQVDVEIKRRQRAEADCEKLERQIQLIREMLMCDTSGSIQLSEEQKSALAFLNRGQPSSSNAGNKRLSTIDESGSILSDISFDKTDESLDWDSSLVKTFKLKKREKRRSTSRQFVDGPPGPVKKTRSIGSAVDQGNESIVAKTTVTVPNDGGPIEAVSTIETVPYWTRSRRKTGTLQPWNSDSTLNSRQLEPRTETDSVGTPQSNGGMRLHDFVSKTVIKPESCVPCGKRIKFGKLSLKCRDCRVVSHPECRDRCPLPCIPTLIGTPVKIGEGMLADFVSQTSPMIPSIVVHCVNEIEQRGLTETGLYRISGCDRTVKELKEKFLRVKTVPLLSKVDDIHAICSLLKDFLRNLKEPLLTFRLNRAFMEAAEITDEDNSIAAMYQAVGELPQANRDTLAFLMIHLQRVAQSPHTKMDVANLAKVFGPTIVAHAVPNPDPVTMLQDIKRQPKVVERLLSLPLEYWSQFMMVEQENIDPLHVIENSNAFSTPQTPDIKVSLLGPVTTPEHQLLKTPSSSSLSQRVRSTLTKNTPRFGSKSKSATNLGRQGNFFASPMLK
Put plainly: MgcRacGAP GTPase-activating activity inhibitors, confirmation, biochemical, ADP Hunter fluorescence, primary and confirmatory (AID 624330). Format: functional.

The target of another assay is T2, Caspase-6 (Homo sapiens, UniProt P55212).
T2 sequence (P55212 whole entry): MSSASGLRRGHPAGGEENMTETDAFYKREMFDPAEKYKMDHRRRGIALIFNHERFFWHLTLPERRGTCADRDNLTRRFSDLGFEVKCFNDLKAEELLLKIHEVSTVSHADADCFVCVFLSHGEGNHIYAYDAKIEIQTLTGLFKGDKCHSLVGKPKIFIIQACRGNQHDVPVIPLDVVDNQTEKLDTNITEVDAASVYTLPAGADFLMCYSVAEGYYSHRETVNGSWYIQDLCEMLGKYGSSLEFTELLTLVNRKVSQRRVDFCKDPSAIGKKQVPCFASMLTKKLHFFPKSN
As to the kind of experiment: human caspase-6 inhibitors, dose response, biochemical, VEID-R110 fluorescence, cherry-pick (AID 720632).

The next assay addresses Caspase-8 (Homo sapiens, UniProt Q14790). Put plainly: caspase-8 inhibition counter-screen, dose response, selectivity assay for caspase-6 inhibitor project, biochemical, Z-IETD-R110 fluorescence, cherry-picked samples (AID 743294). Background: The purpose of a counterscreen is to sort out artefacts and off-target activity.
Another assay has as its target Mu-type opioid receptor (Homo sapiens, UniProt P35372). Put plainly: HTS Image-Based Screen for Agonists of the MOR Receptor. [Related pubchem assays (depositor defined):AID1777, AID1785, AID1786, AID2133]. It is filed as functional.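 Also: imaging of beta-arrestin GFP recruitment into spots after receptor activation.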
Assay [3] addresses Delta-type opioid receptor (Homo sapiens, UniProt P41143). Put plainly: HTS Image-Based Screen for Agonists of the DOR Receptor. [Related pubchem assays (depositor defined):AID1777, AID1786, AID2133]. Format: functional.
Another assay concerns the target Beta-galactosidase (Escherichia coli, UniProt Q8VNN2). It is filed as functional.
In assay [4] the target is T3, High affinity choline transporter 1 (Homo sapiens, UniProt Q9GZV3).
T3 sequence (Q9GZV3 whole entry): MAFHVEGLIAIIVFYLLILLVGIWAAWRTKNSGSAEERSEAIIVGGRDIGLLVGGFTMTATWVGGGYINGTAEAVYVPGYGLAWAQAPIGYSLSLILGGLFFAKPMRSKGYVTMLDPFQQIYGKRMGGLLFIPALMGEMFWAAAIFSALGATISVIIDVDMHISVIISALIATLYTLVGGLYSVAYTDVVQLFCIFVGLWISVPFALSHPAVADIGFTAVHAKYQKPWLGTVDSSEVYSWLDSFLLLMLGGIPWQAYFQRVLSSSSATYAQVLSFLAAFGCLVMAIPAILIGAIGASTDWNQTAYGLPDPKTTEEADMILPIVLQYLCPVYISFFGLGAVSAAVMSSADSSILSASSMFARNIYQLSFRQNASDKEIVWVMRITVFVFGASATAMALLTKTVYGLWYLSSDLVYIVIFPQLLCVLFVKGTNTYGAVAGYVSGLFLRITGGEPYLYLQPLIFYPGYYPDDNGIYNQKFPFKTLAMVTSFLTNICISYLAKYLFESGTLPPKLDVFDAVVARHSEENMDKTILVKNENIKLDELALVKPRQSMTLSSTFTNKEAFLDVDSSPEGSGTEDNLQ
As to the kind of experiment: CHT inhibitors, dose response, cell-based, 5-point CRC, membrane potential dye (AID 504840). Format: functional.

The target of another assay is Fatty acid synthase (Homo sapiens, UniProt P49327). As to the kind of experiment: FAS thioesterase domain inhibitors, dose response, biochemical, kinetic fluorescence intensity (AID 624326).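 Also: rate of fluorescence rise from hydrolysis of a fluorogenic O-methyl fluorescein ester substrate.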 It is filed as functional.

Structures are written as SMILES. Calls of active or inactive are those of the source.

Sequence of Genome polyprotein (P29990 2492-3391 limits assumed): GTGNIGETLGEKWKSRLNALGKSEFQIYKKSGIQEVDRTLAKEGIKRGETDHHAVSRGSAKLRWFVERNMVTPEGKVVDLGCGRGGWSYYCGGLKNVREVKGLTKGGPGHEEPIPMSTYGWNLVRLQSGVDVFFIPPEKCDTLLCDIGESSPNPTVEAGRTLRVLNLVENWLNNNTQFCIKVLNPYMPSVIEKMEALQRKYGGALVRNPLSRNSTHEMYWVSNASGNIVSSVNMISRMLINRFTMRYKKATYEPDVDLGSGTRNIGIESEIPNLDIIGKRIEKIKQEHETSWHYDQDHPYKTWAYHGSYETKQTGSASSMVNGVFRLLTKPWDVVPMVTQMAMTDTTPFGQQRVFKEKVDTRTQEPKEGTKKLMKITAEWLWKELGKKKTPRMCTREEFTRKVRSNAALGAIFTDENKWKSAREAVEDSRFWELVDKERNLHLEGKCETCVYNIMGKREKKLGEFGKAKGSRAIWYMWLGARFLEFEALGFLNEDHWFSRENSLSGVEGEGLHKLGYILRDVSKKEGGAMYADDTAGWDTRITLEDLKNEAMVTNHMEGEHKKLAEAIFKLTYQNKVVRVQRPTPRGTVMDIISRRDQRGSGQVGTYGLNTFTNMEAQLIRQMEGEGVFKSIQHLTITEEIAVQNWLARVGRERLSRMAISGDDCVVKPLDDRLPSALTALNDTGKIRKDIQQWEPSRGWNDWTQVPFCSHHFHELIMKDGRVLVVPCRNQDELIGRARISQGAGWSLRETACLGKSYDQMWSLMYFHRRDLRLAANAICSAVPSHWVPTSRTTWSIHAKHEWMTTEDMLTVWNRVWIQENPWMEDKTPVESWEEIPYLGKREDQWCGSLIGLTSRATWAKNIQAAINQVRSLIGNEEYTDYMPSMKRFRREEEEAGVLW
Sequence of Fatty acid synthase (P49327 whole entry, the tested form may be a part): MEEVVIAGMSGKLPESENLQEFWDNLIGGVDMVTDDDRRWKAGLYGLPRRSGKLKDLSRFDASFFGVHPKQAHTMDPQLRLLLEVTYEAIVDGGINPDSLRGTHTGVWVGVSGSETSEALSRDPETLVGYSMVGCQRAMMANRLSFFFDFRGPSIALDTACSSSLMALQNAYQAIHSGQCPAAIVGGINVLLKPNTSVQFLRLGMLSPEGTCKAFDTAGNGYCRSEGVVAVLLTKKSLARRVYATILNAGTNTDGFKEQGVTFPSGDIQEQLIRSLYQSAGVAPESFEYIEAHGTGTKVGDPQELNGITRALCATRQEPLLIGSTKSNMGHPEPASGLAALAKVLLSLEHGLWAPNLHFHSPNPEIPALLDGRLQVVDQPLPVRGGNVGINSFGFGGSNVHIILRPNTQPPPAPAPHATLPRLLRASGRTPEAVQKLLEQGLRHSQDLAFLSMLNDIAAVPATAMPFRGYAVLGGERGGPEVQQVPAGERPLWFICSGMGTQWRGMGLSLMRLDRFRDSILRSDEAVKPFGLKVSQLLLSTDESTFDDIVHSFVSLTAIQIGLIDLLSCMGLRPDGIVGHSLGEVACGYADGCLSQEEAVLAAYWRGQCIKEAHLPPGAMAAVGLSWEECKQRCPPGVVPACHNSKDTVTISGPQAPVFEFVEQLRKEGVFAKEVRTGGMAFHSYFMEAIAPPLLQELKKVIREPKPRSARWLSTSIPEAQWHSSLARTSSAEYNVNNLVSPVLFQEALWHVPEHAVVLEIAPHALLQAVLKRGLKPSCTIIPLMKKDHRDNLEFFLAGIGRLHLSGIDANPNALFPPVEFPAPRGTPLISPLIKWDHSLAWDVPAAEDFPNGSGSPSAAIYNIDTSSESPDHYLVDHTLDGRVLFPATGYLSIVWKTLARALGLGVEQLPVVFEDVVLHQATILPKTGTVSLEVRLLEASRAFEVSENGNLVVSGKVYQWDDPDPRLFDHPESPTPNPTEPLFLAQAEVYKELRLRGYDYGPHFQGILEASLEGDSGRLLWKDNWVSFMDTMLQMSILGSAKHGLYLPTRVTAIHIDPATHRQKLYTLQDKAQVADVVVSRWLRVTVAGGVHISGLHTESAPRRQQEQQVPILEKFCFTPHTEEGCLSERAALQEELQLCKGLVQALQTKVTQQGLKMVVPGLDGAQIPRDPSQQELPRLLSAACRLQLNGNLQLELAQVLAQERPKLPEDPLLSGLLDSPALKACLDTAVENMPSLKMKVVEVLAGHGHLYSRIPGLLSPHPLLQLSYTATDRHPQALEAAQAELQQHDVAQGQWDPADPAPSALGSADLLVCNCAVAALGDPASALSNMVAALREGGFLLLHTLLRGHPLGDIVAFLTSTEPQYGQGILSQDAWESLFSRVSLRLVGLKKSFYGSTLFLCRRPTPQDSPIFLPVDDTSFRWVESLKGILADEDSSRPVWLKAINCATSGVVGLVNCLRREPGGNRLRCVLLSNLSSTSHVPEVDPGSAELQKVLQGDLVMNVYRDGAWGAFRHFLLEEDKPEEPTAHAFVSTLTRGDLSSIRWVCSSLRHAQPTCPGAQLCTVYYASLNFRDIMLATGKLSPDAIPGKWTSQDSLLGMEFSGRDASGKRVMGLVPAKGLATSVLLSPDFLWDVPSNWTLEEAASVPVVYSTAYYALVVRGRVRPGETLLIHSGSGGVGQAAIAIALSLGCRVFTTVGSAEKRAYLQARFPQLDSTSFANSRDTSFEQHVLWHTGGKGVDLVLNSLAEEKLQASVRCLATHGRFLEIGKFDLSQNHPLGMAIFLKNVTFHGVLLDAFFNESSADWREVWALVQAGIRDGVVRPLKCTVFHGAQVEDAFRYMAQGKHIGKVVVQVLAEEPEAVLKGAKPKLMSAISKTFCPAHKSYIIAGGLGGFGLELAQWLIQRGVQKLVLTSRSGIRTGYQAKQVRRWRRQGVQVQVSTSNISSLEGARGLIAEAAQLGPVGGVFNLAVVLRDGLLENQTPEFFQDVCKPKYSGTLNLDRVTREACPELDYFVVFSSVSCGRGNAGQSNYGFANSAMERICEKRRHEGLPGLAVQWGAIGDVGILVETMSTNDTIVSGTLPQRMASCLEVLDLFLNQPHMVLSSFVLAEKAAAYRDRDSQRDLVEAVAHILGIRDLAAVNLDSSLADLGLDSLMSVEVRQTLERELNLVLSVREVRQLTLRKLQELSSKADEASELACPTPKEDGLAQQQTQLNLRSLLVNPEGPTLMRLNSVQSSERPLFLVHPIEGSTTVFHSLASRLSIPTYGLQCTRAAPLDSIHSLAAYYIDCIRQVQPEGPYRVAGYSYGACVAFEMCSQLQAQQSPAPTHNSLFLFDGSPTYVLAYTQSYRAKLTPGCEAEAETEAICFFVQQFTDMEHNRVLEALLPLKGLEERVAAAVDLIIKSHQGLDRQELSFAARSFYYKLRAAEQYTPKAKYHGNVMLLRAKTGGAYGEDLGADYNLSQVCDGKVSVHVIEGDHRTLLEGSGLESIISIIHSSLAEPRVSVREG
Sequence of Caspase-8 (Q14790 217-374 limits assumed): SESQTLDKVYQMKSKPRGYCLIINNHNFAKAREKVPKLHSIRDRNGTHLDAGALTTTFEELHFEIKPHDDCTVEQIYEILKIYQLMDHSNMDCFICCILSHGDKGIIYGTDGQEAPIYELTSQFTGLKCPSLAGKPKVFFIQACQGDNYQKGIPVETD
Sequence of Caspase-8 (Q14790 385-479 limits assumed): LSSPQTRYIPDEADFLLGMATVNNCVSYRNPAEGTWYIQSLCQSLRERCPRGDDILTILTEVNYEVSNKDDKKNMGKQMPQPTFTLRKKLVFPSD
Sequence of Delta-type opioid receptor (P41143 whole entry): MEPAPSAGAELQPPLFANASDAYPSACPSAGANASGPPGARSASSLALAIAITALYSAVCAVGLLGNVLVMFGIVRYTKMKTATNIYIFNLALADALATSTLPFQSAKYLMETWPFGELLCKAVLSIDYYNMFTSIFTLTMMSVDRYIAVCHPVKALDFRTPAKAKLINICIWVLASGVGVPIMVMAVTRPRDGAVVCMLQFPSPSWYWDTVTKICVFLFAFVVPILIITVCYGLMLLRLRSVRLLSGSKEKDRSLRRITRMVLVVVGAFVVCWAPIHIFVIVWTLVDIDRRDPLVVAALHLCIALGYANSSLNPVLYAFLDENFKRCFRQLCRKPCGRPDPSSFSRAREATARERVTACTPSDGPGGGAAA
Sequence of Tyrosine-protein phosphatase non-receptor type 5 (P54829 whole entry): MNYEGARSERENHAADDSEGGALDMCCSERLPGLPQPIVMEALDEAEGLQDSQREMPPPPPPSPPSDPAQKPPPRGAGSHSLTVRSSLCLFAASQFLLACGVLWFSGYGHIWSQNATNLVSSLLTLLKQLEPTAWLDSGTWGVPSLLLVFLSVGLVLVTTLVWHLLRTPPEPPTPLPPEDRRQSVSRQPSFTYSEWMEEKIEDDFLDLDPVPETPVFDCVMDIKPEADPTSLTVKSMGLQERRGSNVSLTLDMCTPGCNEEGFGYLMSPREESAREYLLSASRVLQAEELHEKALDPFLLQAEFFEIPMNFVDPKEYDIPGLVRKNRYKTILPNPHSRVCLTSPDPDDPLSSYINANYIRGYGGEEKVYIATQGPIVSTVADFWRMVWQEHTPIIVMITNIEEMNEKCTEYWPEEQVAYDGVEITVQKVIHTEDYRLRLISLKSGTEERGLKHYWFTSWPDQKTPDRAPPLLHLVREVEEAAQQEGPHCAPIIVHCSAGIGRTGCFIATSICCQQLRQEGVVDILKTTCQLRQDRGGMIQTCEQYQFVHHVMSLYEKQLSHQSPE
Sequence of Mu-type opioid receptor (P35372 whole entry): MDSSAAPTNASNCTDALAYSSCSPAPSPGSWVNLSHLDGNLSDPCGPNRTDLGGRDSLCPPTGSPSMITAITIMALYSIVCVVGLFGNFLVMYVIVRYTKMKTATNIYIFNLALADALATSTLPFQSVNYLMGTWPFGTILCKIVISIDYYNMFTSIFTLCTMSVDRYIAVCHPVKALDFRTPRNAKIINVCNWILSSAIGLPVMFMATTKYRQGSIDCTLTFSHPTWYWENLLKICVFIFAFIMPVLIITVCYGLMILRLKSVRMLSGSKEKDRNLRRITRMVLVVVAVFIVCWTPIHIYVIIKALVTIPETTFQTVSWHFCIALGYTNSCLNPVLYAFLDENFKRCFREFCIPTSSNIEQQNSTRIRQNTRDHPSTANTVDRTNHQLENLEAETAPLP

As a reminder, the AC50 is the midpoint of the concentration-response curve, whichever way the signal moves. `O=S(=O)(O)c1cc(O)c2cc(Nc3ccccc3)ccc2c1`: the IC50 at Genome polyprotein is 19.4 µM (active); in assay [1], 6.49 µM (active); in assay [2], 37.9 µM (active). For the same compound, the AC50 on Caspase-6 was 0.403 µM (active); on Caspase-8, > 70 µM (inactive).

The EC50 is the midpoint of the concentration-response curve. Regarding `O=[N+]([O-])c1c(Nc2ccccc2O)cc(Cl)c2nonc12`, the EC50 is > 32 µM (inactive) at Mu-type opioid receptor, > 32 µM (inactive) in assay [3] and > 31.5 µM (inactive) on Beta-galactosidase. For the same compound, the figures for the IC50 (in assay [4]; at Genome polyprotein; at Fatty acid synthase) were 13.2 µM (active), 9.7 µM (active) and 7.45 µM (active), respectively.

The values are drawn from ChEMBL document CHEMBL1201862, “PubChem BioAssay data set” (2004).
